For this test, the target named is Thermolysin (Bacillus thermoproteolyticus, UniProt P00800). Particulars: liposomes exposing RJ111; linker Trp-Ile-Pro-Val-Ser-Leu-Arg-Ser-Gly.
Thermolysin, sequence (P00800 233-548, species assumed): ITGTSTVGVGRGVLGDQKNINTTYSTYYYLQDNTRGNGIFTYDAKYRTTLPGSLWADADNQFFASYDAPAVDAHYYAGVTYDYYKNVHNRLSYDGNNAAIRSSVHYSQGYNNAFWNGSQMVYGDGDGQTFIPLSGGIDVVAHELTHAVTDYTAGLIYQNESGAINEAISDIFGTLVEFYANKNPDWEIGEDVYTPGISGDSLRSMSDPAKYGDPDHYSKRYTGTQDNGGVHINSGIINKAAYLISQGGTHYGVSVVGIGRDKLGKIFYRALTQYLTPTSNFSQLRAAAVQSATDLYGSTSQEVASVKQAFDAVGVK

Method: The size and ζ-potential (zeta potential) of RJ111 formulated liposomes were measured before and after enzymatic cleavage of the RJ111 peptide linker using Thermolysin as a model enzyme. RJ111 formulated liposomes were mixed with a buffered solution of Thermolysine yielding final concentrations of: 2.2 mM lipid (220 μM RJ111), 220 μg/ml Thermolysine, 1 uM, ZnCl2 0.5 mM CaCl2, 30 mM HEPES and 125 mM NaCl. The reaction mixtures containing Thermolysine and RJ111 formulated in liposomes were heated to 37° C. for a period of 12 hours and the size and ζ-potential were subsequently measured in an equi-osmolar solution of 300 mM Glucose, 10 mM HEPES (pH 7.4) and 1 mM CaCl2. The ζ-potential and size of the non-cleaved RJ111 formulations were measured (ZetaPALS, Brookhaven Instruments Corp., Holtsville, N.Y., USA) in an equi-osmolar solution of 300 mM Glucose, 10 mM HEPES (pH 7.4) and 1 mM CaCl2.

In the case of “(C14)2-dap-Trp-Ile-Pro-Val-Ser-Leu-Arg-Ser-Gly-Glu-Glu-Glu-Glu-PEG2000-OH [RJ111]”, the “cleavage of peptide linker by Thermolysine” value is listed as “efficiently was cleaved”.

(Values after patent US9161993B2, “Charge triggering of self-organized nanoparticles” (Danmarks Tekniske Universitet, priority 2011, dated 2015).)
